Experimental data from BindingDB's records for doi:10.1021/np020058m (Kyoto Pharmaceutical University, 2002).

Target: Aldo-keto reductase family 1 member B1 (Rattus norvegicus, UniProt P07943)
Experiment: Inhibition of aldose reductase in rat lens homogenates by fluorophotometer

IC50 [µM]	Compound
18	CC(=O)O[C@H]1[C@H](Oc2c(-c3ccc(O)c(O)c3)oc3cc(O)cc(=O)c-3c2O)O[C@H](CO[C@@H]2O[C@@H](C)[C@H](O)[C@@H](O)[C@H]2O)[C@@H](O)[C@@H]1O [3-O-alpha-L-rhamnopyranosyl(1->6)-2''-O-acetyl-beta-D-glucopyranoside]
18	C[C@@H]1O[C@@H](O[C@H]2[C@H](Oc3c(-c4ccc(O)c(O)c4)oc4cc(O)cc(=O)c-4c3O)O[C@H](CO)[C@H](O)[C@@H]2O)[C@H](O)[C@H](O)[C@H]1O [quercetin 3-O-neohesperidoside]
